In patent publication US12653836B2, “Ketogenic diet and ketone supplementation for cancer therapy” (The Trustees of Princeton University, priority 2020, dated 2026):

Test: Isotope tracer infusion: circulatory turnover flux (Fcirc)
Assay type: in vivo, mouse
Conditions: fasted mice
Source text: To confirm this idea, and to test whether the same might be true of circulating 3HB and acetoacetate, a set of isotope-tracer infusion experiments was devised. The circulatory turnover flux (Fcirc) of a given metabolite refers to the rate at which tissues collectively take up the metabolite from arterial circulation; alternatively, Fcirc can be defined as the rate at which tissues collectively excrete the metabolite into the venous circulation, as these two rates are equal at steady state in minimally perturbative tracer infusions.
Isotope tracer infusion. For lactate circulatory turnover flux measurements, 10-14 weeks old C57BL/6 mice were catheterized via both left carotid artery and right jugular vein, as non-perturbative arterial blood sampling is required for precise measurement of circulating lactate labeling. Mice were allowed to recover for 5 days. Mice were fasted from ZT2 to ZT6.5. Sodium [2-^2H] or [U-^13C]lactate solution was diluted to 5% w/w in water, and infused into the double catheterized mice from ZT6.5 to ZT9 to pseudo steady state. Arterial blood was sampled to calculate the turnover rate for ^2H or ^13C lactate.
For other tracing experiments, 10-14 weeks old C57BL6/J mice or mice bearing tumors (KPC flank allografts or Kras^LSL-G12D/+Trp53^−/−Pdx-1-Cre GEMM, tumor sizes ˜150 mm^3) were catheterized via right jugular vein. Mice were allowed to recover from surgery for 3-5 days. For 3HB circulatory turnover flux experiments, mice were fasted from ZT2 to ZT6.5, and [3,4,4,4-^2H] or [U-^13C]3HB were infused to catheterized mice from ZT6.5 to ZT9. Tail blood was sampled to calculate the turnover rate for ^2H or ^13C 3HB.
Metabolic flux quantitation. Circulatory turnover flux, Fcirc was calculated as previously described (Hui et al., 2017), using arterial serum for lactate due to its substantial arterial-venous labeling gradient and tail vein serum for other nutrients:
[formula] R is the infusion rate of the labeled tracer and L is the fractional enrichment of infused labeled form of the metabolite tracer. Fcirc values of ^2H-labeled metabolites were corrected for kinetic isotope effect (KIE, determined from the enzymatic assays) by multiplying the observed Fcirc by KIE value of ^2H tracer.

circulatory turnover flux [nmol/g/min]	Structure (SMILES)
550	[2H]C(C)(O)C(=O)[O-].[Na+] (stereo not shown) [^2H-labeled lactate, Sodium [2-^2H]lactate]
~40	[2H]C([2H])([2H])C([2H])(O)CC(=O)O (stereo not shown) [^2H-labeled 3HB, [3,4,4,4-^2H]3HB]
380	[13CH3][13CH](O)[13C](=O)[O-].[Na+] (stereo not shown) [^13C-labeled lactate, Sodium [U-^13C]lactate]
~40	[13CH3][13CH](O)[13CH2][13C](=O)O (stereo not shown) [^13C-labeled 3HB, [U-^13C]3HB]
